Earlier results on one substance are cited in patent US12485133B2, “Inhaled ivermectin” (Hovione Scientia Limited, priority 2021, dated 2025).

One data set has as its system SARS-Cov-2. To be noted: incubated with 5 μM Ivermectin.
Assay in data set [1]: not given
This is another data set of the same source.

Assay in data set [2]: not given
The source holds these as a separate data set.

For Ivermectin, the “solubility in non-polar aprotic solvents such as hexane” value (hexane) is given as “completely insoluble”. In addition, the “solubility in methanol and 95% ethanol” value (methanol, 95% ethanol) is given as “freely soluble”. The solubility in water (water) is < 1 µg/mL. For the same substance, the “time to eliminate the virus from supernatant and infected cells” value in the data set with SARS-Cov-2 is ≤ 48 h. Further, in data set [1] (acidic and basic aqueous conditions), the “stability under acidic and basic aqueous conditions” value is listed as “degrades”. Moreover, the “optimal pH for stability” value in data set [1] (aqueous conditions) is 6.3. Further, the “solid state stability (degradation in drug substance batches)” value in data set [1] (solid state, 37° C. for 1.5 years) is given as “no degradation observed”. The lipophilicity (Log P) in data set [2] is 4.4.
